Assay [1] concerns H4. The assay is described as follows: Luminescence Cell-Based Dose Response HTS to Identify Activators of 5'UTR Stem-Loop Driven Prion Protein mRNA Translation in H4 Neuroglioblastoma Cells. [Related pubchem assays: 1829 (Project Summary), 1814 (Primary HTS)]. The assay is classed as functional. As to conditions: Homo sapiens.
Assay [2] is described as follows: Luminescence Cell-Based Dose Response HTS to Identify Activators of Luciferase Translation or Activity in H4 […] Cells. [Related pubchem assays: 1829 (Project Summary), 1814 (Primary HTS)]. The class given is functional.
Assay [3] deals with Cytochrome P450 3A4 (Homo sapiens, UniProt P08684).
The target of assay [4] is Cytochrome P450 2C19 (Homo sapiens, UniProt P33261). The assay is described as follows: Cytochrome panel assay with activity outcomes. Panel member name: p450-cyp2c19 Compounds with AC50 equal or less than 10 uM are considered active. The class given is functional. Conditions: read-out: AC50.
Assay [5] deals with T1, Heat shock factor protein 1 (Mus musculus, UniProt P38532).
T1 sequence (P38532 whole entry): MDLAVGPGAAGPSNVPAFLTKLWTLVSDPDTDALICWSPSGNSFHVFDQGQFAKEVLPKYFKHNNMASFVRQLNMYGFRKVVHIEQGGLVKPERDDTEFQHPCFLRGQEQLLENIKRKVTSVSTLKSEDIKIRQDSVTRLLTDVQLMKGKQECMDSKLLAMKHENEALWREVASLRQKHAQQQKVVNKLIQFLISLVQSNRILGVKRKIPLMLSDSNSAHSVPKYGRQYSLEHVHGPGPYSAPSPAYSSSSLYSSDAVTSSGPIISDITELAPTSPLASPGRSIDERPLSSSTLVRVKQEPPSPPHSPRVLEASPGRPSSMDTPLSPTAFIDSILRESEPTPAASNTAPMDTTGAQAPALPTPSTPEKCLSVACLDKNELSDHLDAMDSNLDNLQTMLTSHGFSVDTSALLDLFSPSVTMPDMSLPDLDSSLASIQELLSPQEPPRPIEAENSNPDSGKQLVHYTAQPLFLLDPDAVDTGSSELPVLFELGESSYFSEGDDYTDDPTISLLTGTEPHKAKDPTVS
In words: HSF1 potentiators in luciferase reporter cells, confirmation, cell-based, NIH3T3, luminescence, dose retest (AID 435004).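 Further: stress induced by proteasome inhibitor MG132 added 30 min after compound; luciferase reporter driven by HSF1 response element in NIH3T3 cells; actives raise luminescence as potentiators of the MG132 stress response.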 The class given is functional.

The target of assay [6] is T2, Corticotropin-releasing factor receptor 2/Corticotropin-releasing factor-binding protein (Homo sapiens, UniProt P24387+Q13324).
T2 sequence (Q13324 whole entry): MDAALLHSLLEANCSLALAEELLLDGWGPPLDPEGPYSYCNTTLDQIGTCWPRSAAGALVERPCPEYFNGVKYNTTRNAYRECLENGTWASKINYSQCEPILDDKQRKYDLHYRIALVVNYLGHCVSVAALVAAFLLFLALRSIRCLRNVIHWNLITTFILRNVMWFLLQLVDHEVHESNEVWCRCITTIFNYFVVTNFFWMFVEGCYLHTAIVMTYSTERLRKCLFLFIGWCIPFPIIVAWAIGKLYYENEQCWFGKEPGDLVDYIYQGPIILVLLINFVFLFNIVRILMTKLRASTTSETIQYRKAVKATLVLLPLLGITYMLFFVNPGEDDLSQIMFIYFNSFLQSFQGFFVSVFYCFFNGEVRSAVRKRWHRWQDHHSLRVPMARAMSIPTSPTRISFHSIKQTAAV
T2 sequence (P24387 whole entry): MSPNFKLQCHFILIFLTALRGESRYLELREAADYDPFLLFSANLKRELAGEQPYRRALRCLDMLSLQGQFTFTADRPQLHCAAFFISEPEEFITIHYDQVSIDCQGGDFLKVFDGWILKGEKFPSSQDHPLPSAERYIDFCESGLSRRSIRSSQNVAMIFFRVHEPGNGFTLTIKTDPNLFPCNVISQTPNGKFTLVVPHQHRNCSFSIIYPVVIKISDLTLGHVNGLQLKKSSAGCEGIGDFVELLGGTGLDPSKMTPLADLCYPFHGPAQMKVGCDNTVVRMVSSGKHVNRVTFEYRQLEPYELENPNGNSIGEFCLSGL
In words: activators of CRF receptor 2 with binding protein – uHTS hits, confirmation (AID 602473). The assay is classed as functional. As to conditions: read-out: EC50_Mean.

In assay [7] the test system is Streptococcus sp. 'group A'. The assay is described as follows: growth inhibition of control SK(-) GAS strain, dose response, counter-screen for streptokinase expression inhibitor project, luminescence, kanamycin, BacTiterGlo, confirmation (AID 1900). The assay is classed as functional, organism-based. Background: A counterscreen serves to expose hits that act by an unwanted route or on another target.

The subject of assay [8] is Streptococcus. The assay is described as follows: Group A Streptococcus viability loss, dose response, counter-screen for streptokinase expression inhibitor project, luminescence, BacTiterGlo (AID 1915).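 Further: potency for reduction of bacterial viability or growth.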 The assay is classed as functional, organism-based.
Assay [9] has as its target T3, Cytochrome P450 1A2 (Homo sapiens, UniProt P05177).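 Further: PubChem cytochrome P450 panel assay, CYP1A2 panel member.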
T3 sequence (P05177 whole entry): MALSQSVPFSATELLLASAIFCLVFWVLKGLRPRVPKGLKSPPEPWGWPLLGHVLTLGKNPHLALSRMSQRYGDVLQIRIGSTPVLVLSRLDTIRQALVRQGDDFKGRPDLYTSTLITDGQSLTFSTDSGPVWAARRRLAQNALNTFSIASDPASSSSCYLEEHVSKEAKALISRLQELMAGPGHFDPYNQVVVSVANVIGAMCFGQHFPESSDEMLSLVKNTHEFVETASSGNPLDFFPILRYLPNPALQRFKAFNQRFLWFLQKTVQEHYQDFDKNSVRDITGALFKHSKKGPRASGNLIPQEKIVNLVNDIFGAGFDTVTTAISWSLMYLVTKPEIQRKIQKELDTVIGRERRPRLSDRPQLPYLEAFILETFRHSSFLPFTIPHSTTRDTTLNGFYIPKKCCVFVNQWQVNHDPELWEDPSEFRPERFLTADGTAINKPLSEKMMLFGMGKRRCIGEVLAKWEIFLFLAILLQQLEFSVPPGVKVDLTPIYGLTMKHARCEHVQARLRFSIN

Assay [10] has as its target T1, Heat shock factor protein 1. The assay is described as follows: inhibition of MG132-induced HSE-luciferase signal, confirmation, cell-based, NIH3T3, luminescence, dose retest (AID 2382).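 Further: NIH3T3 fibroblasts with HSF1-driven luciferase reporter stressed by proteasome inhibitor MG132; luminescence from HSF1-driven luciferase expression after 8 hours of MG132 stress.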 The class given is functional.

SMILES strings stand for the structures. Active and inactive are the calls of the source. A value given as a limit tells only on which side of the number the result lay.

The source of these data is ChEMBL document CHEMBL1201862, “PubChem BioAssay data set” (2004).

Sequence of Cytochrome P450 3A4 (P08684 whole entry): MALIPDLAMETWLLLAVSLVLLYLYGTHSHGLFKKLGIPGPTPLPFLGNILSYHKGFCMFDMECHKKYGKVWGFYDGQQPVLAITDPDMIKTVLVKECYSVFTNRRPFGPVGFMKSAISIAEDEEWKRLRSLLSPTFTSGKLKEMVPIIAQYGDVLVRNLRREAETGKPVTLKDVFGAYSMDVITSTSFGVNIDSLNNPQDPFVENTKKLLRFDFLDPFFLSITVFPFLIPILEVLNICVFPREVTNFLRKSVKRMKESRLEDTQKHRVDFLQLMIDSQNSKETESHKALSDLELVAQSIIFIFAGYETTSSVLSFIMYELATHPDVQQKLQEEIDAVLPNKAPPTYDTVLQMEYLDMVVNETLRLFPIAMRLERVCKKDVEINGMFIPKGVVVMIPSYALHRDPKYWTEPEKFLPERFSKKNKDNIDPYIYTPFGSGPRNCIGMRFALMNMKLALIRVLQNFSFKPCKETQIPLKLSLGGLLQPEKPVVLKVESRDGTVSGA
Sequence of Cytochrome P450 2C19 (P33261 whole entry): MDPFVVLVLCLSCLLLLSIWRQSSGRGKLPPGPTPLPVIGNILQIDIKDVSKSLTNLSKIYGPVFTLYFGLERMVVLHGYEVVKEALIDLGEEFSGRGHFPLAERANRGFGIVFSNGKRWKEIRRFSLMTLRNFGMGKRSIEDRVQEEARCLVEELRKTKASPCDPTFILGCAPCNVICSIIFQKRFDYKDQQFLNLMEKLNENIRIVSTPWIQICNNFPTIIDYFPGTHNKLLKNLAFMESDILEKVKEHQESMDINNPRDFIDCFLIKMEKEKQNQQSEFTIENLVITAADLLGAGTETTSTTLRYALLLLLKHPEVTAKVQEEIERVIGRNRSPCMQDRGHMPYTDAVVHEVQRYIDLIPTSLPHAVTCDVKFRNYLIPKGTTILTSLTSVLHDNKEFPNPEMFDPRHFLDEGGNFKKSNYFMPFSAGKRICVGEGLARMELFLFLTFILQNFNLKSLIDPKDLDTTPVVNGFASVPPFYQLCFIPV

On to `CCOc1ccc(N2C(=O)C(Cl)=C(Nc3ccccc3O)C2=O)cc1`, for which the EC50 was 0.107 µM (active) in assay [1] and > 120 µM (not active) in assay [2].
For orientation: AC50 means the midpoint of the concentration-response curve, whichever way the signal moves. For the molecule `CCCc1ccc(-c2cc(C(=O)NN3CCOCC3)c3ccccc3n2)cc1`, the AC50 in [3] is 12.6 µM (inconclusive); in [4], 15.8 µM (inconclusive).
Consider `CC(=O)c1ccc(N2CCN(C(=O)c3[nH]nc4ccccc34)CC2)cc1`, for which the EC50 in assay [5] is > 260 µM (inactive).
On the same count and under the same terms, in the case of `Cc1cc(C)n(-c2nc3ccccc3nc2N2CCN(C(=O)c3ccc(F)cc3)CC2)n1` it was > 260 µM (inactive).
On to `COc1ccc(CN(C)Cc2c(O)ccc3ccccc23)cc1`, for which the EC50 in [5] is 38.8 µM (active).
With `CN1CCCC2(CCN(C(=O)c3cc(C(F)(F)F)cc(C(F)(F)F)c3)CC2)C1`, the AC50 in [3] and in assay [4] was 25.1 µM (inconclusive) throughout.
Take `O=C(COC(=O)[C@H](Cc1ccccc1)NC(=O)c1ccco1)NCc1ccccc1`: the EC50 in [6] was 10.4 µM (active).
Consider `COc1ccc(NC(=O)C(NCC(C)C)c2ccccc2)cc1Cl` (centres undefined), for which the EC50 in assay [5] was > 260 µM (inactive).
Take `CN(Cc1ccc(OC(F)F)cc1)Cc1nc(O)c2cc(Br)cc(Br)c2n1`: the EC50 in [7] is 4.31 µM (active); in assay [8] it was > 150 µM (not active).
In the case of `CCCSc1nnc2n(-c3ccccc3OC)c(=O)c3c4c(sc3n12)CCC4`, the EC50 in assay [5] is > 260 µM (inactive).
For the molecule `CC(C)(C)C(=O)N(CCN(C(=O)C(C)(C)C)c1ccccc1)c1ccccc1`, the AC50 is 7.08 µM (inconclusive) in assay [3] and 8.91 µM (inconclusive) in assay [4].
`O=C(c1cnccn1)N1CCC2(CC1)CN(c1cccc(-c3ccccc3)c1)C2`: the AC50 in assay [3] was 39.8 µM (inconclusive); in assay [9], 15.8 µM (inconclusive).
In the case of `S=C(c1cn(Cc2ccc(Br)cc2)c2ccccc12)N1CCOCC1`, the EC50 in assay [5] is > 260 µM (inactive).
For the molecule `Nc1c(-c2ccsc2)cnc2ncnn12`, the EC50 in assay [5] was > 260 µM (inactive).
On to `CC(c1ccccc1C(O)(c1ccccc1)c1ccccc1)N(C)C` (centres undefined), for which the EC50 in assay [6] is 4.62 µM (active).
Regarding `CCOc1ccc(N2C(=O)/C(=C\NNC(=O)C3COc4ccccc4O3)c3ccccc3C2=O)cc1` (centres undefined), the EC50 was 1.63 µM (active) in assay [7] and 5.75 µM (active) in [8].
As for `Cc1noc(C)c1C(=O)N1CCC2(CCCN(C(=O)Nc3cccc(F)c3)C2)CC1`, the AC50 in assay [3] and in assay [9] was 15.8 µM (inconclusive) each time.
On to `COCCn1c(=O)c(-c2cccc(F)c2)nc2cncnc21`, for which the AC50 is 15.8 µM (inconclusive) in [3] and 39.8 µM (inconclusive) in assay [4].
Consider `N=C(NOC(=O)/C=C/c1ccccc1Cl)c1cccnc1`, for which, in [1], the EC50 was 22.8 µM (active).
Take `COC(=O)C1=CN(c2ccc(F)cc2)C=C(C(=O)OC)C1c1cccc(Br)c1`: the EC50 in [5] was > 260 µM (inactive).
Take `CN=C(S)NCCC(c1ccccc1)c1ccccc1`: the EC50 in assay [5] was > 260 µM (inactive).
With `O=C(Nc1cccn(Cc2c(Cl)cccc2Cl)c1=O)c1ccc(Cl)cc1Cl`, the results for the AC50 in [3] and in assay [9] were 14.1 µM (inconclusive) and 2.82 µM (inconclusive), respectively.
With `CCOc1ccc(-n2c(=S)sc3c(O)nc(SCC(=O)NC(C)CC)nc32)cc1` (centres undefined), the EC50 in [5] was > 260 µM (inactive).
For the molecule `COc1ccc(C(NC(=O)c2ccc(O)nc2)C(=O)Nc2ccc(C(C)C)cc2)cc1` (centres undefined), the EC50 is > 195 µM (not active) in assay [10] and > 53 µM (inactive) in assay [6].
Take `COC(=O)c1ccc(OC(=O)CCN2C(=O)C3CCCCC3C2=O)cc1` (centres undefined): the EC50 in [5] is > 260 µM (inactive).
As to `COc1ccc(-c2nc3cnc(OC)nc3n(-c3ccc(OC)cc3)c2=O)cc1`, the AC50 is 15.8 µM (inconclusive) in [3] and 0.316 µM (inconclusive) in assay [9].
The like results for `COc1cc(OC)c(C2C(C(=O)O)c3ccccc3C(=O)N2C)cc1OC` (centres undefined) were, in that order, 0.355 µM (inconclusive) and 31.6 µM (inconclusive).
In the case of `O=C(COc1ccccc1)NC(=S)Nc1cccc2cc(O)ccc12`, the EC50 in [5] was > 260 µM (inactive).
Consider `O=C(NCc1cccc(Cl)c1)c1cccc(S(=O)(=O)N2CCCC2)c1`, for which the EC50 in assay [6] is > 53 µM (inactive).
Still for that read-out and setting: in the case of `Cc1nc2c(c(=O)c3ccccc3n2C)c(=O)n1C1CCCCCC1` it was 9.6 µM (active).
For `Cc1cccc(-n2nnc3cnn(C)c3c2=O)c1`, the values for the AC50 in assay [3] and in assay [9] were 31.6 µM (inconclusive) and 12.6 µM (inconclusive), respectively.
Take `Nn1c(SCC(=O)N2CCOCC2)nnc1C1CC1`: the EC50 in assay [5] was > 260 µM (inactive).
As to `Cn1ncc2c(Nc3ccc(Br)cc3)nc(Nc3ccc(Br)cc3)nc21`, the EC50 in assay [7] was 1.01 µM (active); in [8], 2.38 µM (active).
Consider `CCOC(=O)/C(=C\c1ccc(N2CCC(c3ccccc3)=N2)cc1)C(C)=O`, for which the EC50 in [6] was 7.05 µM (active).
For the molecule `COc1ccc(-c2nnc3ccc(SCC(=O)NCC4CCCO4)nn23)cc1` (centres undefined), the EC50 in assay [5] is > 260 µM (inactive).
Still for that read-out and setting: in the case of `Cc1ccc(C(=O)NNC(=O)c2ccccc2-n2cccc2)cc1` it was > 260 µM (inactive).
Same read-out and setting: the figure for `O=S(=O)(c1ccc(Cl)cc1)N1CCC2(CC1)OCCN2S(=O)(=O)c1cccs1` is 227 µM (active).
The same measure, in the same setting: in the case of `COc1ccc(OC)c(S(=O)(=O)Nc2ccccc2O)c1` it was > 260 µM (inactive).
Regarding `Cc1cccn2c(=O)c3cc(C#N)/c(=N\C(=O)c4cccnc4)n(CC4CCCO4)c3nc12` (centres undefined), in [6], the EC50 is > 53 µM (inactive).
With `O=C(NC(C(=O)N/N=C/c1cccnc1)c1nnc(O)c2ccccc12)c1ccccc1` (centres undefined), the EC50 in assay [6] was 7.94 µM (active).
As for `COc1ccc(NC(=O)c2ccc(-c3ccc(-c4noc(C)n4)cc3C)cc2)cc1OCCN(C)C`, the AC50 was 15.8 µM (inconclusive) in [3] and 39.8 µM (inconclusive) in assay [9].
Consider `O=c1[nH]c2ccccc2c2cn(-c3ccccc3)nc12`, for which the EC50 in assay [5] was 126 µM (active).
For `Cc1nn(-c2ccc(Cl)cc2)c(O)c1/C=N/n1c(C)nc2ccccc2c1=O`, the EC50 in assay [7] is 3.48 µM (active); in assay [8] it was 7.22 µM (active).
For `CC/C(=N/Cc1ccc(Cl)c(Cl)c1)c1nc(-c2ccco2)oc1O`, the EC50 in assay [5] was 20 µM (active).
As to `CC(C)N1C(=O)/C(=C\c2c[nH]c3ccccc23)S/C1=N\c1ccccc1`, the figures for the AC50 in assay [3], in assay [4] and in [9] were 22.4 µM (inconclusive), 2 µM (inconclusive) and 4.47 µM (inconclusive), respectively.
